Results on twelve compounds are retold here after ChEMBL document CHEMBL3044771, “Synthesis, characterization, and in vitro anti-Mycobacterium tuberculosis activity of terpene Schiff bases” (2013).

One may read the MIC as the lowest concentration found to suppress growth.

Common to all, as to type: functional
One experiment concerns Mycobacteroides chelonae. The experiment is described as follows: Antitubercular activity against Mycobacterium chelonae ATCC 35751 assessed as growth inhibition after 48 hr by NCCLS agar dilution method. The conditions noted are these: ATCC 35751, 48 h.
Experiment [1] deals with Mycolicibacterium smegmatis. The experiment is described as follows: Antitubercular activity against Mycobacterium smegmatis ATCC 35797 assessed as growth inhibition after 48 hr by NCCLS agar dilution method. As to conditions: ATCC 35797, 48 h. A general note: In agar dilution, organisms are placed on agar that contains the substance at set levels.
The subject of a further experiment is Mycobacterium xenopi. The experiment is described as follows: Antitubercular activity against Mycobacterium xenopi ATCC 14470 assessed as growth inhibition after 48 hr by NCCLS agar dilution method. As to conditions: ATCC 14470, 48 h.
For experiment [2], the system named is Mycobacterium intracellulare. The experiment is described as follows: Antitubercular activity against Mycobacterium intracellulare ATCC 35743 assessed as growth inhibition after 48 hr by NCCLS agar dilution method. The conditions noted are these: ATCC 35743, 48 h.

Values after ≈ are worked out from the molar mass of the structure shown.

Take `CC(C)=CCC/C(C)=C\C=N/NC(=O)c1ccccc1Nc1cccc(C)c1C`: the MIC (in the experiment with Mycobacteroides chelonae; in experiment [1]; in the experiment on Mycobacterium xenopi; in experiment [2]) was greater than 100 µg/mL each time.

Consider `CCn1cc(C(=O)N/N=C\C=C(/C)CCC=C(C)C)c(=O)c2ccc(C)nc21`, for which the MIC (in the experiment on Mycobacteroides chelonae; in experiment [1]; in the experiment on Mycobacterium xenopi; in experiment [2]) was greater than 100 µg/mL each time.

Regarding `CC(C)=CCC/C(C)=C/C=N/NC(=O)c1ccncc1`, the MIC (with Mycobacteroides chelonae; in experiment [1]; with Mycobacterium xenopi; in experiment [2]) was greater than 100 µg/mL each time.

Take `C=C(C)C1CC=C(C)/C(=N\NC(=O)c2cn(CC)c3nc(C)ccc3c2=O)C1` (stereo not drawn): the MIC (in the experiment with Mycobacteroides chelonae; in experiment [1]; in the experiment on Mycobacterium xenopi; in experiment [2]) was greater than 100 µg/mL throughout.

Consider `Cc1cccc(Nc2ccccc2C(=O)N/N=C2\CC3CCC2(C)C3(C)C)c1C` (stereo not drawn), for which the MIC (in the experiment on Mycobacteroides chelonae; in experiment [1]; in the experiment with Mycobacterium xenopi; in experiment [2]) was greater than 100 µg/mL in each case.

In the case of `C=C(C)C1CC=C(C)/C(=N/NC(=O)c2ccncc2)C1` (stereo not drawn), the MIC (in the experiment with Mycobacteroides chelonae; in experiment [1]; in the experiment with Mycobacterium xenopi; in experiment [2]) was 12 µg/mL (≈ 44.6 µM) each time.

On to `C=C(C)C1CC=C(C)/C(=N/NC(=O)c2ccccc2Nc2cccc(C)c2C)C1` (stereo not drawn), for which the minimum inhibitory concentration (MIC) (with Mycobacteroides chelonae; in experiment [1]; in the experiment on Mycobacterium xenopi; in experiment [2]) was greater than 100 µg/mL throughout.

As to `CCn1cc(C(=O)N/N=C2\CC3CCC2(C)C3(C)C)c(=O)c2ccc(C)nc21` (stereo not drawn), the MIC (in the experiment with Mycobacteroides chelonae; in experiment [1]; in the experiment with Mycobacterium xenopi; in experiment [2]) was 50 µg/mL (≈ 131 µM) each time.

Take `CC12CCC(C/C1=N/NC(=O)c1ccncc1)C2(C)C` (stereo not drawn): the MIC (with Mycobacteroides chelonae; in experiment [1]; in the experiment with Mycobacterium xenopi; in experiment [2]) was 50 µg/mL (≈ 184 µM) throughout.

Take `CC12CCC(C/C1=N\NC(=O)c1ccccc1Nc1cccc(C(F)(F)F)c1)C2(C)C` (stereo not drawn): the MIC (with Mycobacteroides chelonae; in experiment [1]; in the experiment with Mycobacterium xenopi; in experiment [2]) was greater than 100 µg/mL each time.

Regarding `C=C(C)C1CC=C(C)/C(=N/NC(=O)c2ccccc2Nc2cccc(C(F)(F)F)c2)C1` (stereo not drawn), the MIC (with Mycobacteroides chelonae; in experiment [1]; in the experiment with Mycobacterium xenopi; in experiment [2]) was greater than 100 µg/mL each time.

As to `NNC(=O)c1ccncc1` [ISONIAZID], the MIC (in the experiment on Mycobacteroides chelonae; in experiment [1]; with Mycobacterium xenopi; in experiment [2]) was 12.5 µg/mL (≈ 91.1 µM) throughout.
